Data: patent US8507483B2, “1H-pyrimidin-2-one derivatives, preparation thereof and pharmaceutical use thereof as inhibitors of AKT (PKB) phosphorylation” (Sanofi, priority 2009, dated 2013)

Test system: AKT protein phosphorylated on serine 473 (P-AKT-S473) in PC3 human prostate carcinoma cells
Assay: pAKT expression in PC3 cells measured by MSD Multi-spot Biomarker Detection (Test B)
Format: cell-based
Settings: PC-3, inhibition of AKT Ser473 phosphorylation, 1 to 2 h incubation, MSD sandwich immunoassay, absolute IC50, mean of two experiments
Description: The inhibitory activity of the molecules on AKT phosphorylation is measured either by western blotting using the technique described below, or by the MSD Multi-spot Biomarker detection technique from Meso Scale Discovery also described below.
Where appropriate, the activity of the products is translated into approximately IC50, obtained from a dose-response curve of various concentrations tested and representing the dose giving 50% of specific inhibition (absolute IC50). Two independent experiments make it possible to calculate the mean of the IC50s. Study of pAKT expression in PC3 human prostate carcinoma cells measured by the MSD Multi-spot Biomarker Detection technique from Meso Scale Discovery (Test B): This test is based on measuring the expression of the AKT protein phosphorylated on serine 473 (P-AKT-S473), in the PC3 human prostate carcinoma line, by means of the technique based on a sandwich immunoassay using the MSD Multi-spot Biomarker Detection kit from Meso Scale Discovery: phospho-Akt (Ser473) whole cell lysate kit (#K151 CAD) or phospho-Akt (Ser473)/Total Akt whole cell lysate kit (#K151OOD).
The primary antibody specific for P-AKT-5473 (Kit #K151 CAD) is coated onto an electrode in each well of the 96-well plates of the MSD kit: after the addition of a protein lysate to each well, the signal is visualised by adding a secondary detection antibody labelled with an electrochemoluminescent compound. The procedure followed is that described in the kit.
On day 1, the PC3 cells are seeded into 96-well plates (TPP, #92096) at the concentration of 35 000 cells/well in 200 μl of DMEM medium (DMEM Gibco #11960-044) containing 10% of foetal calf serum (FCS Gibco, #10500-056) and 1% glutamine (L-Glu Gibco #25030-024), and incubated at 37° C., 5% CO2, overnight.
On day 2, the cells are incubated in the presence or absence of the test products for 1 to 2 h at 37° C. in the presence of 5% of CO2. The molecules, diluted in dimethyl sulphoxide (DMSO Sigma #D2650), are added from a 20-times concentrated stock solution, the final percentage of DMSO being 0.1%. The molecules are tested either at a single concentration of less than or equal to 10 μM, or at increasing concentrations in a range that can extend from less than 1 nM to 10 μM.
After this incubation, the cells are lysed for the preparation of the proteins. For this, after the culture medium has been drawn off, […] of complete Tris Lysis Buffer of the MSD kit containing the protease and phosphatase inhibitor solutions are added to the wells and the cells are lysed for 1 h at 4° C. with shaking At this stage, the plates containing the lysates can be frozen at −20° C. or at −80° C.
The wells of the 96-well plates of the MSD kit are saturated for 1 h at ambient temperature with the blocking solution of the MSD kit. Four washes are carried out with 150 μl of Tris Wash Buffer of the MSD kit. The lysates previously prepared are transferred into the 96-well multi-spot plates of the MSD kit and incubated for 1 h at ambient temperature, with shaking Four washes are carried out with 150 μl of Tris Wash Buffer of the MSD kit. 25 μl of the MSD sulpho-tag detection antibody solution are added to the wells and incubated for 1 h at ambient temperature, with shaking Four washes are carried out with 150 μl of Tris Wash Buffer of the MSD kit. 150 μl of Read Buffer of the MSD kit are added to the wells and the plates are read immediately on the 512400 instrument from Meso Scale Discovery.
The instrument measures a signal for each well. Wells without cells and containing the lysis buffer serve to determine the background noise that will be subtracted from all the measurements (min). The wells containing cells in the absence of product and in the presence of 0.1% DMSO are considered to be the 100% signal (max). The percentage inhibition is calculated for each concentration of test product according to the following formula: (1−((test−min)/(max−min)))×100. […]

Row | Structure (SMILES) | IC50 [nM]
1 | COc1ccc2nc(Cc3nc(N4CCOCC4)cc(=O)[nH]3)[nH]c2c1 [Example 4, 2-[(6-methoxy-1H-benzimidazol-2-yl)methyl]-6-(morpholin-4-yl)pyrimidin-4(3H)-one] | 475
2 | Cc1ccc2nc(Cc3nc(N4CCOCC4)cc(=O)[nH]3)oc2c1 [Example 8, 2-[(6-methyl-1,3-benzoxazol-2-yl)methyl]-6-(morpholin-4-yl)pyrimidin-4(3H)one] | 143
3 | O=c1cc(N2CCOCC2)nc(Cc2nc3ccc(Br)cc3o2)[nH]1 [Example 9, 2-[(6-bromo-1,3-benzoxazol-2-yl)methyl]-6-(morpholin-4-yl)pyrimidin-4(3H)-one] | 175
4 | Cn1c(Cc2nc(N3CCOCC3)cc(=O)[nH]2)nc2cc(F)ccc21 [Example 11, 2-[(5-fluoro-1-methyl-1H-benzimidazol-2-yl)methyl]-6-(morpholin-4-yl)pyrimidin-4(3H)-one] | 16
5 | O=c1cc(N2CCOCC2)nc(Cc2nc3cccc(F)c3o2)[nH]1 [Example 12, 2-[(7-fluoro-1,3-benzoxazol-2-yl)methyl]-6-(morpholin-4-yl)pyrimidin-4(3H)-one] | 88
6 | O=c1cc(N2CCOCC2)nc(Cc2nc3ccccc3n2-c2ccccc2)[nH]1 [Example 13, 6-(morpholin-4-yl)-2-[(1-phenyl-1H-benzimidazol-2-yl)methyl]pyrimidin-4(3H)-one] | 8
7 | O=c1cc(N2CCOCC2)nc(Cc2nc3ccccc3n2Cc2ccccc2)[nH]1 [Example 14, 2-[(1-benzyl-1H-benzimidazol-2-yl)methyl]-6-(morpholin-4-yl)pyrimidin-4(3H)-one] | 105
8 | CCn1c(Cc2nc(N3CCOCC3)cc(=O)[nH]2)nc2ccccc21 [Example 15, 2-[(1-ethyl-1H-benzimidazol-2-yl)methyl]-6-(morpholin-4-yl)pyrimidin-4(3H)-one] | 26
9 | O=c1cc(N2CCOCC2)nc(Cc2nc3cc(F)c(F)cc3o2)[nH]1 [Example 16, 2-[(5,6-difluoro-1,3-benzoxazol-2-yl)methyl]-6-(morpholin-4-yl)pyrimidin-4(3H)-one] | 187
10 | O=c1cc(N2CCOCC2)nc(Cc2nc3ccc(Cl)cc3[nH]2)[nH]1 [Example 17, 2-[(6-chloro-1H-benzimidazol-2-yl)methyl]-6-(morpholin-4-yl)pyrimidin-4(3H)-one] | 63
11 | COCCn1c(Cc2nc(N3CCOCC3)cc(=O)[nH]2)nc2cc(F)ccc21 [Example 19, 2-{[5-fluoro-1-(2-methoxyethyl)-1H-benzimidazol-2-yl]methyl}-6-(morpholin-4-yl)pyrimidin-4(3H)-one] | 109
12 | O=c1cc(N2CCOCC2)nc(Cc2nc3ccc4ccccc4c3o2)[nH]1 [Example 20, 6-(morpholin-4-yl)-2-(naphtho[2,1-d][1,3]oxazol-2-ylmethyl)pyrimidin-4(3H)-one] | 1000
13 | COc1ccc2nc(Cc3nc(N4CCOCC4)cc(=O)[nH]3)oc2c1 [Example 21, 2-[(6-methoxy-1,3-benzoxazol-2-yl)methyl]-6-(morpholin-4-yl)pyrimidin-4(3H)-one] | 18
14 | O=c1cc(N2CCOCC2)nc(Cc2nc3ccc(F)c(F)c3o2)[nH]1 [Example 22, 2-[(6,7-difluoro-1,3-benzoxazol-2-yl)methyl]-6-(morpholin-4-yl)pyrimidin-4(3H)-one] | 28
15 | O=c1cc(N2CCOCC2)nc(Cc2nc3cc(Cl)c(Cl)cc3[nH]2)[nH]1 [Example 23, 2-[(5,6-dichloro-1H-benzimidazol-2-yl)methyl]-6-(morpholin-4-yl)pyrimidin-4(3H)-one] | 193
16 | Cc1ccc2nc(Cc3nc(N4CCOCC4)cc(=O)[nH]3)[nH]c2c1 [Example 24, 2-[(6-methyl-1H-benzimidazol-2-yl)methyl]-6-(morpholin-4 yl)pyrimidin-4(3H)-one] | 140
17 | O=c1cc(N2CCOCC2)nc(Cc2nc3c(Cl)cc(C(F)(F)F)cc3[nH]2)[nH]1 [Example 25, 2-{[4-chloro-6-(trifluoromethyl)-1H-benzimidazol-2-yl]methyl}-6-(morpholin-4-yl)pyrimidin-4(3H)-one] | 3000
